Patent US20120232043A1, “LUBIPROSTONE FOR OBSTETRICAL OR GYNECOLOGICAL APPLICATIONS” (CEMAG, priority 2009, published 2012)

System: women requesting early pregnancy termination (<64 days of amenorrhea)
Assay: Early pregnancy termination in women: oral mifepristone followed by oral lubiprostone
Type: in vivo
Conditions: twelve women, 200 mg mifepristone once orally, followed 24 hours later by oral lubiprostone 8 μg twice daily for 2 consecutive days
Description: Twelve women requesting early pregnancy termination (<64 days of amenorrhea) have received 200 mg mifepristone once, orally followed 24 hours later by the oral administration of lubiprostone (8 μg twice daily for 2 consecutive days). Efficacy rate (i.e. complete pregnancy termination, without need for surgical procedure) was […]. In one person, ovular fragments had to be removed at the uterine os with a forceps. Median bleeding time was 8 days. There was no specific adverse event except mild diarrhea in 3 subjects.

Median bleeding time: 8 days
Compound: CCCCC(F)(F)[C@@]1(O)CC[C@H]2[C@@H](CC(=O)[C@@H]2CCCCCCC(=O)O)O1 [lubiprostone, 7-[(2R,4aR,5R,7aR)-2-(1,1-difluoropentyl)-2-hydroxy-6-oxo-3,4,4a,5,7,7a-hexahydrocyclopenta[b]pyran-5-yl]heptanoic acid]
Efficacy rate (i.e. complete pregnancy termination, without need for surgical procedure) (<64 days of amenorrhea): 97%
Adverse event: mild diarrhea (no other specific adverse event): 3 subjects
Ovular fragments had to be removed at the uterine os with a forceps: one
